Assay results taken from article PMC12732581, “Molecular and System-Level Characterization of MMP12 Suppression in Lung Cancer: A Combined Bioinformatics and Molecular Approach” (International Journal of Molecular Sciences, 2025).
pIC50: −log10 of the molar value.

Assays:
H1299 cells [1] = assay: Annexin V-FITC/PI apoptosis assay (flow cytometry); settings: H1299, double IC50, 72 h; for Necrosis (%) (Annexin−/PI+, Q1-UL): control 0.7; for Late Apoptosis (%) (Annexin+/PI+, Q1-UR): control 2.6; for Early Apoptosis (%) (Annexin+/PI−, Q1-LR): control 8.7; for Total Apoptosis (%): control 11.3
Protocol: (§6) Apoptosis was assessed using Annexin-V/PI staining, following the method described earlier with minor modifications [84]. […] After the treatment, the cells were collected and stained with Annexin-V-FITC and propidium iodide. The stained cells were then analyzed using a BD FACSCanto II flow cytometer (Becton, Dickinson and Company (BD), Franklin Lakes, NJ, USA) and FACSDiva software (Becton, Dickinson and Company (BD), Franklin Lakes, NJ, USA).

recombinant human MMP12 = biological target: T1, recombinant human MMP12 (Homo sapiens, UniProt P39900); assay: MMP12 colorimetric thiopeptide enzyme inhibition assay (Abcam); type: biochemical
T1 construct: purchased Abcam
T1 sequence (P39900 106-470): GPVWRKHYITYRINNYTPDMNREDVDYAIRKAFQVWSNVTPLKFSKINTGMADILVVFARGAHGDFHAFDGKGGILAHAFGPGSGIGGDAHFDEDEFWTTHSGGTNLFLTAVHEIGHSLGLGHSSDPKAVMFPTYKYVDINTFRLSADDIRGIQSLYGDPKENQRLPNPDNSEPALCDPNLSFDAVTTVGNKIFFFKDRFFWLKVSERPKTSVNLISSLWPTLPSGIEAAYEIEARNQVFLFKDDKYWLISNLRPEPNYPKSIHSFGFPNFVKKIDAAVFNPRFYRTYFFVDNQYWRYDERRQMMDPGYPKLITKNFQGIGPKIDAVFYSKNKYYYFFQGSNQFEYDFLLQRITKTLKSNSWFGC
Protocol: The enzyme inhibition potential of synthesized p-chlorocinnamic acid derivatives against MMP12 was assessed using the Abcam colorimetric assay.
The inhibitory activity of the newly synthesized compounds against MMP12 was assessed using a previously established enzymatic assay protocol, as described in our earlier study. In brief, we conducted a colorimetric thiopeptide-based inhibition assay for MMP12 using recombinant human MMP12 and the reference inhibitor NNGH as a positive control. The IC50 values were calculated using GraphPad Prism version 9 (GraphPad Software, San Diego, CA, USA).

A549 lung cancer cells = assay: MTT cell viability assay, A549; type: cell-based, human
Protocol: (§1) To evaluate the impact of MMP12 inhibitors on lung cancer cell lines, an MTT assay was performed on A549, H1299, and H661 cells exposed to varying concentrations of inhibitors over 48, 72, and 96 h.
(§2) The lung cancer cell lines referenced as A549, H1299, and H661 were acquired from the American Type Culture Collection (ATCC, Manassas, VA, USA). Fibroblast cells of dermal origin were used as a model for normal human tissue, which were also purchased from ATCC. A549, H1299, and H661 cells were maintained in the RPMI culture medium, while fibroblast cells were maintained in the DMEM high glucose culture medium. Both RPMI and DMEM culture media were supplemented with 100 U/mL penicillin, 0.1 mg/mL streptomycin to prevent bacterial growth, 10% FBS to promote cell growth, and 2 mM L-glutamine as an energy source.
(§3) The 3-(4,5-dimethylthiazol-2-yl)-2,5-diphenyltetrazolium bromide (MTT) assay was employed to evaluate cell proliferation as previously noted. All experiments were performed in triplicate wells and were repeated at least twice independently. The percentage of the relative cell viability of treated cells versus the untreated cells (negative controls) was calculated using the following formula in Equation (1) (cell viability calculation):(1) Cell viability%=optical density of treated cells/optical density of untreated cells×100

H1299 lung cancer cells = assay: MTT cell viability assay, H1299; type: cell-based, human
Protocol: as §1, §2, §3

H661 lung cancer cells = assay: MTT cell viability assay, H661; type: cell-based, human
Protocol: as §1, §2, §3

H1299 cells [2] = assay: Wound healing migration assay; type: cell-based, human; settings: for Wound closure %: untreated 99; for Wound migration rate (px/h): untreated 16,702
Protocol: The wound healing migration assay was conducted using H1299 cells, following an established protocol. […] Images were captured at 0 and 48 h, and wound closure was quantified using ImageJ. Digital images were analyzed for wound area using the ImageJ software version 1.53e.

H1299 cells [3] = assay: Soft agar colony formation assay (anchorage-independent growth); type: cell-based, human; settings: for Colony count / Colony average size (px): H1299 soft agar; for Colony count: untreated 920; for Colony average size (px): untreated 746758
Protocol: Figures S12–S16 show a selection of images captured on day 15 at different magnifications: 4× and 20×.
The anchorage-independent colony formation assay was conducted using a previously described method with minor modifications. […] After 14 days of incubation, the colonies were imaged using the EVOS XL Core microscopeThermo Fisher Scientific, Waltham, MA, USA. and quantified.

CD44 mRNA in H1299 cells = assay: qPCR gene expression, CD44; type: cell-based, human; settings: H1299, 0.1 IC50, 72 h
Protocol: (§4) Quantitative real-time PCR (qPCR) was used to assess the impact of MMP12 inhibition in H1299 lung cancer cells.
(§5) Quantitative real-time PCR (qPCR) was conducted as previously described. Lung cancer cell lines (A549, H1299, H661) were seeded at approximately 4 × 10^5 cells per T-25 flask and incubated for 24 h. […] Total RNA was extracted, reverse-transcribed into cDNA, and qPCR was performed using SYBR Green on an Applied Biosystems platform, Foster City, CA, USA. Gene expression was normalized to GAPDH, and the fold-change was calculated using the 2^−ΔΔCt method. The basal expression of MMP12 in untreated A549, H1299, and H661 cells was assessed using the 2^−ΔCt method. Primer sequences and annealing temperatures (Ta) are listed in Table S2 (Supplementary Materials).

[4] = system: NFKBIA mRNA in H1299 cells; assay: qPCR gene expression, NFKBIA; type: cell-based, human; settings: H1299, 0.1 IC50, 72 h
Protocol: as §4, §5

[5] = system: PSME3 mRNA in H1299 cells; assay: qPCR gene expression, PSME3; type: cell-based, human; settings: H1299, 0.1 IC50, 72 h
Protocol: as §4, §5

[6] = system: SPARCL1 mRNA in H1299 cells; assay: qPCR gene expression, SPARCL1; type: cell-based, human; settings: H1299, 0.1 IC50, 72 h
Protocol: as §4, §5

[7] = system: ADAM9 mRNA in H1299 cells; assay: qPCR gene expression, ADAM9; type: cell-based, human; settings: H1299, 0.1 IC50, 72 h
Protocol: as §4, §5

[8] = system: APOA1 mRNA in H1299 cells; assay: qPCR gene expression, APOA1; type: cell-based, human; settings: H1299, 0.1 IC50, 72 h
Protocol: as §4, §5

[9] = system: CCL15 mRNA in H1299 cells; assay: qPCR gene expression, CCL15; type: cell-based, human; settings: H1299, 0.1 IC50, 72 h
Protocol: as §4, §5

[10] = system: MMP12 mRNA in H1299 cells; assay: qPCR gene expression, MMP12; type: cell-based, human; settings: H1299, 0.1 IC50, 72 h
Protocol: as §4, §5

[11] = system: MMP12 protein in H1299 cells; assay: Western blot of MMP12 protein expression; type: cell-based, human; settings: for Normalized MMP-12 (to GAPDH), Western blot: untreated H1299 0.9696
Protocol: Western blotting was conducted to assess the protein expression of MMP12 in lung cancer cell lines (A549, H1299, and H661), following the protocol established earlier. In summary, cells were seeded and incubated for 24 h. […] Total protein lysates were prepared, separated by SDS-PAGE, and transferred to nitrocellulose membranes. These membranes were then probed with primary antibodies against MMP12 and GAPDH. The protein bands were visualized using an HRP substrate and analyzed for relative expression.

H1299 cells [12] = assay: Cell cycle analysis (PI staining, flow cytometry); type: cell-based, human; settings: H1299, ½ IC50, 48 h
Protocol: Cell cycle distribution was evaluated in H1299 cells using a modified version of the method described. […] After the treatment period, the cells were fixed with ethanol, stained with a propidium iodide/RNase A solution, and analyzed using a BD FACSCanto II flow cytometer. The data were processed with BD FACSDiva software version 8 (BD Biosciences, San Jose, CA, USA).

H1299 cells [13] = settings: human, 72 h
Protocol: as §6

[14] = highest listed concentration (IC50)
[15] = lowest listed concentration (¼ IC50)
[16] = middle listed concentration (½ IC50)
[17] = relative to untreated, GAPDH normalized

SMILES: N.N.[Cl][Pt][Cl] [Cisplatin, reference compound]
- Necrosis (%) (Annexin−/PI+, Q1-UL) (H1299 cells [1]): 1.7%
- Late Apoptosis (%) (Annexin+/PI+, Q1-UR) (H1299 cells [1]): 11.6%
- Early Apoptosis (%) (Annexin+/PI−, Q1-LR) (H1299 cells [1]): 28.6%
- Total Apoptosis (%) (H1299 cells [1]): 40.2%

SMILES: O=C(/C=C/c1ccc(Cl)cc1)Nc1ccc(C(=O)c2ccccc2)cc1 [Compound C1]
- inhibition at 50 µM (recombinant human MMP12): 32.9%
- pIC50 (A549 lung cancer cells; A549, 72 h): 3.93
- pIC50 (A549 lung cancer cells; Homo sapiens, A549, 48 h): 3.70
- pIC50 (A549 lung cancer cells; Homo sapiens, A549, 72 h): 3.93
- pIC50 (A549 lung cancer cells; Homo sapiens, A549, 96 h): 4.09
- pIC50 (H1299 lung cancer cells; H1299, 72 h): 4.04
- pIC50 (H1299 lung cancer cells; Homo sapiens, NCI-H1299, 48 h, H1299, 48 h): 3.45
- pIC50 (H1299 lung cancer cells; Homo sapiens, NCI-H1299, 72 h, H1299, 72 h): 4.04
- pIC50 (H1299 lung cancer cells; Homo sapiens, NCI-H1299, 96 h, H1299, 96 h): 4.00
- pIC50 (H661 lung cancer cells; H661, 72 h): 4.47
- pIC50 (H661 lung cancer cells; Homo sapiens, NCI-H661, 48 h, H661, 48 h): 4.22
- pIC50 (H661 lung cancer cells; Homo sapiens, NCI-H661, 72 h, H661, 72 h): 4.47
- pIC50 (H661 lung cancer cells; Homo sapiens, NCI-H661, 96 h, H661, 96 h): 3.89
- Wound closure % (H1299 cells [2]; H1299, 48 h, at IC50 concentration): 10%
- Wound closure % (H1299 cells [2]; H1299, 48 h, at ¼ IC50): 72%
- inhibition of wound closure (H1299 cells [2]; H1299, 48 h, at ½ IC50 (C1 45.9, C7 24.1, C9 21.7, C10 32.7, C15 72.6 µM)): ~50%
- Wound closure % (H1299 cells [2]; H1299, 48 h, at ½ IC50): 50%
- Wound migration rate (px/h) (H1299 cells [2]; H1299, at IC50 concentration): 1,640.73 px/h
- Wound migration rate (px/h) (H1299 cells [2]; H1299, at ¼ IC50): 11,751 px/h
- Wound migration rate (px/h) (H1299 cells [2]; H1299, at ½ IC50): 9,225 px/h
- formation of cell colonies (number and size), in words (H1299 cells [3]; H1299, IC50, ½ IC50 or ¼ IC50, 72 h, vs untreated control): inhibited the formation of cell colonies
- Colony count (H1299 cells [3]; [14]): 292
- Colony average size (px) (H1299 cells [3]; [14]): 51655 px
- Colony count (H1299 cells [3]; [15]): 520
- Colony average size (px) (H1299 cells [3]; [15]): 262500 px
- Colony count (H1299 cells [3]; [16]): 408
- Colony average size (px) (H1299 cells [3]; [16]): 130041 px
- CD44 Fold Change (2^−ΔΔCt) (CD44 mRNA in H1299 cells; [17]): 0.48
- CD44 % Change (CD44 mRNA in H1299 cells; vs untreated control): −52%
- NFKBIA Direction [4]: Up
- NFKBIA Fold Change (2^−ΔΔCt) [4, 17]: 24.33
- NFKBIA % Change ([4]; vs untreated control): +2333%
- PSME3 Fold Change (2^−ΔΔCt) [5, 17]: 0.54
- PSME3 % Change ([5]; vs untreated control): −46%
- SPARCL1 Fold Change (2^−ΔΔCt) [6, 17]: 0.49
- SPARCL1 % Change ([6]; vs untreated control): −51%
- ADAM9 Direction [7]: Up
- ADAM9 Fold Change (2^−ΔΔCt) [7, 17]: 123.60
- ADAM9 % Change ([7]; vs untreated control): +12,260%
- APOA1 Fold Change (2^−ΔΔCt) [8, 17]: 0.79
- APOA1 % Change ([8]; vs untreated control): −21%
- CCL15 Fold Change (2^−ΔΔCt) [9, 17]: 0.03
- CCL15 % Change ([9]; vs untreated control): −97%
- MMP12 Fold Change (2^−ΔΔCt) [10, 17]: 0.78
- MMP12 % Change ([10]; vs untreated control): −22%
- MMP12 protein suppression (Western blot), in words ([11]; H1299, 0.1, ¼ and ½ IC50): less effective
- Normalized MMP-12 (to GAPDH), Western blot ([11]; H1299, 0.1 IC50, 72 h): 0.6296
- Normalized MMP-12 (to GAPDH), Western blot ([11]; H1299, ¼ IC50, 72 h): 0.3747
- Normalized MMP-12 (to GAPDH), Western blot ([11]; H1299, ½ IC50, 72 h): 0.1966
- cells in G2/M phase (H1299 cells [12]): 9.1%
- cells in S phase (H1299 cells [12]): 36.5%
- cells in G0/G1 phase (H1299 cells [12]; untreated 62.5%): 47.4%
- Viable (%) (Annexin−/PI−, Q1-LL) (H1299 cells [13]): 78.6%
- Necrosis (%) (Annexin−/PI+, Q1-UL) (H1299 cells [1]): 1.9%
- Late Apoptosis (%) (Annexin+/PI+, Q1-UR) (H1299 cells [1]): 2.9%
- Early Apoptosis (%) (Annexin+/PI−, Q1-LR) (H1299 cells [1]): 16.6%
- Total Apoptosis (%) (H1299 cells [1]): 19.5%

SMILES: O=C(/C=C/c1ccc(Cl)cc1)Nc1cccc(C(=O)c2ccccc2)c1 [Compound C2]
- MMP12 enzyme inhibition (recombinant human MMP12; at 50 µM): 35.0%
- pIC50 (A549 lung cancer cells; A549, 48 h): < 3.00
- pIC50 (A549 lung cancer cells; A549, 72 h): < 3.00
- pIC50 (A549 lung cancer cells; A549, 96 h): < 3.00
- pIC50 (H1299 lung cancer cells; H1299, 48 h): 3.08
- pIC50 (H1299 lung cancer cells; H1299, 72 h): 3.16
- pIC50 (H1299 lung cancer cells; H1299, 96 h): 3.46
- pIC50 (H661 lung cancer cells; H661, 48 h): 3.22
- pIC50 (H661 lung cancer cells; H661, 72 h): 3.39
- pIC50 (H661 lung cancer cells; H661, 96 h): 3.46
